Assay results reported in patent EP4670722A1, “PROPHYLACTIC OR AMELIORATING AGENT FOR CELL AGING” (Kyowa Pharma Chemical Co., Ltd., priority 2023, dated 2024).

What was measured:
[1] = test system: Human normal dermal fibroblasts (NB1RGB) with a PDL of 30 or less; test: Cell proliferation rate (MTT) of normal dermal fibroblasts; format: cell-based; conditions: 50 µg/mL to 200 µg/mL, 2 days, activity increased as content increased, Fig. 2
Description: Human normal dermal fibroblasts (NB1RGB) with a PDL of 30 or less and human senescent dermal fibroblasts (NB1RGB) with a PDL of 50 or more were each cultured using DMEM containing 10% FBS. The cultured cells were collected by trypsin treatment. The collected cells were seeded in a 96-well microplate at a concentration of 5.0 x 10^3 cells/well and cultured overnight. Thereafter, the cells were cultured for 2 days at 37°C in a medium for fibroblast proliferation (FBS-free) to which a test sample (sucrose or 2'-fucosyllactose) was added to a concentration of 50 µg/mL, 100 µg/mL,or 200 µg/mL. The medium was replaced with FBS-free DMEM medium, then 10 µL/well of 5 mg/mL 3-[4,5-dimethylthiazol-2-yl]-2,5-diphenyltetrazolium bromide (MTT) was added, and the cells were cultured at 37°C for 3 hours. […] After extraction, the absorbance of formazan (As, 492 nm) was measured with a microplate reader. […]
Human normal dermal fibroblasts with a PDL of 30 or less and human senescent fibroblasts with a PDL of 50 or more were each cultured and the absorbance of formazan was measured in the same manner as in Example 2-1, except that no test sample was added. The obtained absorbance was designated as Ab, and the cell proliferation rate represented by the above formula (1) was determined for each case of PDL of 30 or less and PDL of 50 or more.

[2] = test system: Human normal epidermal keratinocytes (HaCaT); test: Cell viability (Cell Counting Kit-8) of tunicamycin-treated epidermal keratinocytes; format: cell-based; conditions: tunicamycin 0.1 µg/mL, 50 µg/mL to 200 µg/mL, 24 hours, effect increased as content increased, Fig. 5
Description: Human normal epidermal keratinocytes (HaCaT) were cultured using DMEM containing 10% FBS. The cultured cells were collected by trypsin treatment. The collected cells were seeded in a 96-well plate, and when they reached 100% confluence, tunicamycin, an agent that induces endoplasmic reticulum stress, was added at 0.1 µg/mL, and the cells were cultured for 24 hours. A group was also prepared in which FBS-free DMEM medium containing a test sample (2'-fucosyllactose) at 50 µg/mL, 100 µg/mL, or 200 µg/mL was added simultaneously with tunicamycin, and cultured for 24 hours. After completion of culture, the viability of human normal epidermal keratinocytes was evaluated using Cell Counting Kit-8 (manufactured by Dojindo Laboratories). The measurement wavelength (As) was set to 450 nm, and the reference wavelength was set to 620 nm.
Human normal epidermal keratinocytes were cultured and the absorbance at a measurement wavelength of 450 nm was measured in the same manner as in Example 4-1, except that tunicamycin and the test sample were not added. The obtained absorbance was designated as Ab, and the cell viability represented by the above formula (1) was determined.

laminin = test: Laminin secretion amount (ELISA) of tunicamycin-treated dermal fibroblasts; format: cell-based, Human; conditions: NB1RGB PDL of 30 or less, tunicamycin 0.3 µg/mL, 50 µg/mL to 200 µg/mL, 24 hours; recovery increased as content increased; Fig. 8
Description: Human normal dermal fibroblasts (NB1RGB) with a PDL of 30 or less were cultured using DMEM containing 10% FBS. The cultured cells were collected by trypsin treatment. The collected cells were seeded in a 24-well plate, and when they reached 100% confluence, tunicamycin at 0.3 µg/mL was added, and the culture supernatant was collected after 24 hours. A group was also prepared in which FBS-free DMEM medium containing the test sample (2'-fucosyllactose) at 50 µg/mL, 100 µg/mL, or 200 µg/mL was added simultaneously with tunicamycin, and the culture supernatant was collected after 24 hours. The culture supernatant was centrifuged, and the resulting supernatant was used as a sample. […] This total cell protein concentration was measured by the Bradford assay.
Human normal dermal fibroblasts with a PDL of 30 or less were cultured in the same manner as in Example 7-1, except that tunicamycin and the test sample were not added, and the culture supernatant was collected. […] This total cell protein concentration was measured by the Bradford assay.
An Enzyme-Linked Immunosorbent Assay (ELISA) method was performed using an antibody against laminin to measure the amount of laminin in the samples. […] After stopping the reaction, the absorbance at a measurement wavelength of 450 nm was measured using a microplate reader. […]

Compound: C[C@@H]1O[C@@H](O[C@H]2[C@H](O[C@H]3[C@H](O)[C@@H](O)C(O)O[C@@H]3CO)O[C@H](CO)[C@H](O)[C@@H]2O)[C@@H](O)[C@H](O)[C@@H]1O (stereo partly drawn) [2'-FL, 2'-fucosyllactose]
- proliferation activity of normal fibroblasts (cell proliferation rate) [1]: improved the proliferation activity of normal fibroblasts
- endoplasmic reticulum stress (cell viability) [2]: ameliorated endoplasmic reticulum stress
- laminin secretion (laminin): restored laminin secretion
